Patent US9410947B2, “Fluorescent dyes and related methods” (University of Washington through its Center for …, priority 2012, dated 2016)
“Also recorded” adds a separate entry of the source.

How the values were obtained:
[1] = tested on: Prorocentrum minimum; test: Flow cytometric analysis of DNA staining in alga; type: cell-based; conditions: 1% DMSO
Source text: In another aspect, this example describes a set of experiments to investigate DANPY-1 dye for use in flow cytometric analysis of DNA. The alga Prorocentrum minimum was selected for these studies. Several controls were run to: (a) ensure that cell integrity was maintained, (b) assess the contribution of unbound DANPY-1 to fluorescent background signals and (c) determine a dye concentration and the intensity of the fluorescent signal when the target DNA is fully saturated with bound dye. The DANPY-1 concentrations that were tested in these preliminary experiments ranged from 7.1 μM to 228 μM. All of the flow cytometric work was performed on an Accuri C6 flow cytometer (BD Scientific, Ann Arbor, Mich.). The excitation wavelength for the FL1, FL2, and FL3 detectors (or channels) is 488 nm and the FL4 laser excites at a wavelength of 640 nm. The fluorescent wavelengths that each channel detects are as follows: FL1 530/30, FL2 585/40, FL3 670 LP and FL4 675/25. These experiments are summarized below (data not shown): […]

[2] = Solubility in solvents; type: physicochemical
[3] = tested on: salmon sperm DNA; test: Photometric (colorimetric) titration of dye solutions with DNA, Scatchard / n-K fit; type: binding
Protocol: Dye/DNA binding was assessed. The binding constant and number of dye molecules bound per base pair were assessed by means of photometric titrations (Peacocke, A. R.; Skerrett, J. N. H., Trans. Faraday Soc. 1956, 52, 261, Angerer, L. M.; Moudrianakis, E. N., J. Mol. Bio. 1972, 63, 505-521) of dye solutions with commercially available salmon sperm DNA (Sigma Aldrich, MW 50 kD to 100 kD) in 10 mM TE buffer at pH 7.2. Experiments were run using a temperature-controlled Ocean Optics diode array spectrophotometer at 25.0° C., with 2.5 mL of dye solution at a concentration sufficient for an initial optical density near 0.75, adding 1.5 mM DNA solution in 30 μL aliquots.
This example describes affinity of DANPY-1 to DNA. […] These experiments were analyzed using the Scatchard equation (Scatchard, G., Ann. N.Y. Acad. Sci. 1949, 51, 662-672.) […]
A titration methodology was also used. Dyes were evaluated for their DNA-binding properties by means of colorimetric titrations in buffered aqueous solution (1×TE buffer titrated to pH 7.2 with HCl). […] After allowing the solution to mix for about one minute, the stirrer was stopped and a spectrum was recorded. If the initial absorbance of the dye was ≧1, the dye solution was diluted with the appropriate solvent (TE buffer, methanol, or butanol) until the initial absorbance was <1. […] The reduced absorbance change […]

[4] = in chloroform, extrapolated to zero frequency; cited from earlier work
[5] = tested on: dsDNA; test: QCM-D binding study, dsDNA layer; set-up: species or system salmon; conditions: pH 7.2 1×TE buffer, 298 K, 0.3 mL/min, rinse ten minutes
Source text: (§1) In yet another aspect, the present disclosure includes methods for quantifying nucleic acid molecules in a sample. For example, the present disclosure can include a method of determining a quantity of a nucleic acid molecule in a sample using the Quartz Crystal Microbalance with Dissipation Monitoring (QCM-D) method. QCM-D can be used to determine the formation of films (e.g., nm in thickness). For example, films may be formed on a surface from proteins, polymers, surfactants and cells. QCM-D can detect films formed in liquid and may be used to determine binding kinetics of, for example, cationic dyes (e.g., ethidium bromide, DANPY-1 and/or DAST). For example, a Q-Sense instrument (e.g., a Q-Sense E4 instrument, Biolin Scientific AB, Stockholm) can be used for QCM-D using a dedicated set of QCM sensors (e.g., SiO2-coated). The procedures of cleaning, deposition, mass monitoring, and preparing nucleic acid for QCM-D are known. (R. J. Rawle, C. R. D. Selassie, M. S. Johal, Langmuir 2007, 23, 9563-9566). Data can be output as kinetics that can include structural changes and mass changes. The crystals can be, for example, coated with a polyethylene imine (PEI) layer to enable binding of anionic nucleic acids. The crystals can be, for example, coated with a polymer polystyrene sulfonate (PSS), that only undergoes loose electrostatic binding. […]

[6] = tested on: ssDNA; test: QCM-D binding study, ssDNA layer; set-up: species or system salmon; conditions: pH 7.2 1×TE buffer, 298 K, 0.3 mL/min, rinse ten minutes
Source text: as §1

[7] = QCM-D binding study, PSS control polymer; conditions: pH 7.2 1×TE buffer, 298 K
Source text: as §1

[8] = tested on: tRNA; test: QCM-D binding study, tRNA layer; conditions: pH 7.2 1×TE buffer, 298 K, 0.3 mL/min, rinse ten minutes
Source text: as §1

[9] = QCM-D binding study, bare SiO2 control; conditions: pH 7.2 1×TE buffer, 298 K
Source text: as §1

[10] = QCM-D binding study, PEI layer
Source text: The three nucleic acids (e.g., single-stranded DNA (ssDNA), double-stranded DNA (dsDNA), and transfer RNA (tRNA)) used in this example are anionic. The crystals were coated with a polyethylene imine (PEI) layer to create a surface and enable binding of the nucleic acids. […] Polystyrene sulfonate (PSS) was used as a control polymer. As controls, PSS which can only undergo loose electrostatic binding, and bare SiO2 were used. Any materials used for coating were allowed to deposit until a stable mass was reached (e.g., for five minutes) followed by five minutes of rinsing with buffer between each layer; (1) PEI or PSS, (2) nucleic acid and (3) the dye. After deposition, the film was rinsed with buffer for ten minutes. If the adsorbed mass returned to near the form immediately prior to the addition of the dye, then remained stable, the binding was characterized as reversible. Binding was characterized as irreversible if the mass remained constant after rinsing or leveled off at a substantially higher value than before the dye was added.

Compound: CC(=O)[O-].CN(C)c1ccc2cc(-c3cc[n+](C)cc3)ccc2c1 [DANPY-1, dimethylaminonaphthylpyridinium]
- cell concentration ([1]; 7.1 μM dye, 10 minute exposure): 1.02e5 cells/mL
- impact on cell integrity ([1]; 7.1 μM dye, 10 minute exposure): no impact on cell integrity
- mean fluorescent intensity FL-1 channel ([1]; 7.1 μM dye, FL1 530/30, ex 488 nm): 6032
- mean fluorescent intensity FL-2 channel ([1]; 7.1 μM dye, FL2 585/40, ex 488 nm): 40801
- cell concentration ([1]; 57 μM dye, 10 minute exposure): 9.5e4 cells/mL
- impact on cell integrity ([1]; 57 μM dye, 10 minute exposure): no impact on cell integrity
- mean FU intensity FL-1 channel ([1]; 57 μM dye, FL1 530/30, ex 488 nm): 17951 FU
- mean FU intensity FL-2 channel ([1]; 57 μM dye, FL2 585/40, ex 488 nm): 167481 FU
- cell concentration ([1]; 228 μM dye, 10 min exposure): 8.1e4 cells/mL
- impact on cell integrity ([1]; 228 μM dye, 10 min exposure): some impact on cell integrity
- mean fluorescent intensity FL-1 channel ([1]; 228 μM dye, FL1 530/30, ex 488 nm): 26131
- mean fluorescent intensity FL-2 channel ([1]; 228 μM dye, FL2 585/40, ex 488 nm): 412988
- solubility in standard spin-coating solvents ([2]; TCE and cyclopentanone): poorly soluble
- solubility in butanol ([2]; butanol): poorly soluble
- solubility in lower alcohols ([2]; methanol, ethanol, and n-propanol): highly soluble

Compound: CCN(CCO)c1ccc(N=Nc2ccc([N+](=O)[O-])cc2)cc1 [DR1, Disperse Red 1]
- change in the absorbance peak on titration with DNA ([3]; 1:1 TE buffer and ethanol): no substantial change in the absorbance peak
- solubility in water ([2]; water): not sufficiently soluble
- static hyperpolarizability βzzz(0) [4]: 54±5 10^−30 esu

Compound: trans-4-[4-(Dimethylamino)styryl]-1-methylpyridinium toluenesulfonate [DAST]
- shift in absorbance maximum upon addition of DNA ([3]; TE buffer): exhibited a shift in absorbance maximum
- QCM-D binding to dsDNA [5]: did not interact strongly and None
- QCM-D binding to ssDNA [6]: interacted strongly; also recorded: Irreversible
- QCM-D binding to PSS [7]: interacted strongly; also recorded: Partially
- QCM-D binding to tRNA [8]: did not interact strongly; also recorded: Reversible
- QCM-D binding to SiO2 [9]: Reversible
- QCM-D binding to PEI layer [10]: did not bind
